Measured values: patent EP2954896A1, “Small molecule inhibitors of the E3 Ligase Skp2 in depression and other diseases” (Max-Planck-Gesellschaft zur Förderung der Wissenschaften …, priority 2014, dated 2015)

Assays:
autophagy = assay: Autophagy markers (Western blot, Beclin1 immunoprecipitation) in brain extracts of Alzheimer model mice (TG2576); format: in vivo, TG2576 animals; details: 5mg/kg daily intraperitoneal for 3 months
Experimental: (§1) For the precipitation of Beclin1 from brain tissue (Fig. 15), the tissue was first homogenized (300µL of Buffer I (50 mM Tris (pH 7.5), 150 mM NaCl, 5 mM EDTA, Protease inhibitor Mix (Sigma , P2714), Phosphatase Inhibitor (Roche, 04906837001)) followed by sonication and addition of 300µL of Buffer II (50 mM Tris (pH 7.5), 150 mM NaCl, 1% NP40, 1% Deoxycholate, 2% SDS, Protease inhibitor Mix (Sigma , P2714), Phosphatase Inhibitor (Roche, 04906837001)).
(§2) Western blot analysis was performed on eluates from ColPs or with protein extracts from cells or tissue. Protein extracts were obtained by lysing cells or tissue (prelysed as described in the paragraph before) in 62.5 mM Tris, 2% SDS and 10% sucrose, supplemented with protease (Sigma, P2714) and phosphatase (Roche, 04906837001) inhibitor cocktail. Samples were sonicated and heated at 95 °C for 5 min. Proteins were separated by SDS-PAGE and electro-transferred onto nitrocellulose membranes. […]
(§3) TG2576 animals (used as Alzheimer's disease model, overexpress a mutant form of amyloid precursor protein (APP)) were chronically treated with daily intraperitoneal injections of SMIP004 (N-(4-butyl-2-methylphenyl)acetamide; 5mg/kg) or vehicle (0.9% NaCl; 1.25% DMSO) for 3 months. Brain and other tissue was analyzed for markers of autophagy and for the levels of soluble beta-amyloid (Aβ). […]

Beclin1 [1] = assay: Western analysis of Beclin1 protein level in primary rat cortical astrocytes; format: cell-based
Experimental: as §2, with “membranes. Blots were placed in Tris-buffered saline, supplemented with 0.05% Tween (Sigma, P2287) and 5% non-fat milk for 1 h at room temperature and then incubated with primary antibody (diluted in TBS/0.05% Tween) overnight at 4 °C.” for “membranes.”

APP-CTF = APP-CTF Western blot in brain extracts of Alzheimer model mice (TG2576); format: in vivo, TG2576 animals; details: 5mg/kg daily intraperitoneal for 3 months
Experimental: as §1, §2, §3

CA1 neuronal activity = assay: Voltage-sensitive dye imaging (VSDI) of evoked CA1 neuronal activity in brain slices; details: 10 µM SMIP004, 1 h after wash in; slices from C57BL/6 mice
Description: Brain slices were obtained from 11-18 week-old male FKBP51+/+ and FKBP51-/- litter mates (Fig. 1) or from BL6 mice (Fig. 7). […] Four acquisitions subsequently recorded at intervals of 5 s were averaged. Neuronal activity was evoked by square pulse electrical stimuli (200 µs pulse width) delivered via a custom-made monopolar tungsten electrode to the Schaffer collateral-commissural pathway. The circular ROI was placed into the CA1 stratum radiatum near the stimulation electrode. The ROI also covered a part of the adjacent CA1 stratum pyramidale (Fig. 1 B). The intensity of voltage stimulation was adjusted to produce FDSs with peak amplitudes of ~30% of the highest attainable value.
Hippocampal CA3-CA1 synapses were electrically stimulated in brain slices from Fkbp51^+/+ and Fkbp51^-/- mice, and CA1 neuronal activity was monitored by means of voltagesensitive dye imaging (VSDI).

soluble Aβ = assay: Aβ42 ELISA in Alzheimer model mice (TG2576); format: in vivo, TG2576 animals; details: 5mg/kg daily intraperitoneal for 3 months
Experimental: TG2576 animals (used as Alzheimer's disease model, overexpress a mutant form of amyloid precursor protein (APP)) were chronically treated with daily intraperitoneal injections of SMIP004 (N-(4-butyl-2-methylphenyl)acetamide; 5mg/kg) or vehicle (0.9% NaCl; 1.25% DMSO) for 3 months. Brain and other tissue was analyzed for markers of autophagy and for the levels of soluble beta-amyloid (Aβ). It is commonly assumed that Aβ agglomerates are causally linked to Alzheimer's disease.

Beclin1 [2] = assay: Protein levels in brain extracts (hippocampus, prefrontal cortex) of SMIP004-treated mice; format: in vivo, C57BL/6 mice; details: various cell types; brain lysates of animals treated with SMIP004 (0.5 or 5 mgkg-1)
Experimental: as §2, with “membranes. Blots were placed in Tris-buffered saline, supplemented with 0.05% Tween (Sigma, P2287) and 5% non-fat milk for 1 h at room temperature and then incubated with primary antibody (diluted in TBS/0.05% Tween) overnight at 4 °C.” for “membranes.”
Furthermore the neuronal activity in CA1 hippocampus was measured after treatment with SMIP004 (Figure 7). […] And protein levels were determined in extracts of the hippocampus and the prefrontal cortex.

Tail suspension test = format: in vivo; details: C57BL/6 mice; SMIP004 0.5 or 5 mgkg-1; paroxetine 10 mgkg-1 as comparator
[3] = test system: primary rat cortical astrocytes; assay: MTT cytotoxicity assay in primary rat cortical astrocytes; format: cell-based
Experimental: (§4) Enriched astroglial cultures were prepared from postnatal day 1 rat pups (Sprague-Dawley, Charles River, Sulzfeld, Germany) and handled as described by Attwood BK et al. (2011) Nature 473: 372-375 and Hartmann J et al. (2012) Neuropharmacology 62: 332-339.
In an effort to find a small molecule to inhibit the E3 ligase Skp2 three promising candidates of published chemical genetic screens were tested on cellular toxicity and its potency to stabilise Beclin1. Cytotoxicity was determined by an MTT assay performed in HEK 293 cell and in primary rat cortical astrocytes. Effects of small compounds on Beclin1 and p27 protein levels were determined by Western analysis of HEK 293 primary rat cortical astrocytic lysates (see Fig. 6).

Beclin1 [4] = assay: Western analysis of Beclin1 and p27 protein levels in HEK 293 and astrocytic lysates; format: cell-based; details: HEK 293 and primary rat cortical astrocytic lysates
Experimental: as §2, with “membranes. Blots were placed in Tris-buffered saline, supplemented with 0.05% Tween (Sigma, P2287) and 5% non-fat milk for 1 h at room temperature and then incubated with primary antibody (diluted in TBS/0.05% Tween) overnight at 4 °C.” for “membranes.”

Beclin1 mRNA = Beclin1 mRNA expression by qPCR in rat cortical astrocytes; format: cell-based; details: 10µM for 72h; vehicle set to 1
Experimental: as §4
Total RNA was isolated from astroglial cells according to the manufacturer's protocol of NucleoSpin RNA II (Macherey-Nagel, Germany). In total, 300 ng of purified RNA was reverse transcribed using random primers (Promega) and Omniscript® Reverse Transcriptase (Qiagen). Based on the LightCycler® System (Roche Applied Science, Germany) and SYBR green detection (QuantiFast® SYBR Green; Qiagen), quantitative assessment of Beclin1 cDNA levels were performed. b-Actin PCR was performed serving as endogenous control for normalization. The primers used were: for Beclin1: antisense - 5'-[…]-3' sense - 5'-[…]-3'; and for β-Actin: antisense - 5'-[…]-3', sense-5'-[…]-3'. Relative changes of gene expression were calculated using the comparative ΔΔCT method (Livak and Schmittgen, METHODS 25, 402-408, 2001). Detection of viral RNA by real-time PCR was as recently described (Corman et al. (2014) Journal of Clinical Virology 60: 168-171).
Beclin1 mRNA expression levels were determined by qPCR. HEK cells were treated either with proteasome inhibitor MG132 or with vehicle for 5h and Beclin1 protein levels were determined by Western analysis. Furthermore Co-immunoprecipitations were performed with Beclin1 antibody in HEK cell lysates with ectopic Ub-GFP.

autophagy markers = assay: Autophagy markers in protein extracts of hippocampus and prefrontal cortex after acute antidepressant injection; format: in vivo, mice; details: FKBP51 WT versus FKBP51 KO mice; 10 mg kg-1
Experimental: Western blot analysis was performed on eluates from ColPs or with protein extracts from cells or tissue. Protein extracts were obtained by lysing cells or tissue (prelysed as described in the paragraph before) in 62.5 mM Tris, 2% SDS and 10% sucrose, supplemented with protease (Sigma, P2714) and phosphatase (Roche, 04906837001) inhibitor cocktail. Samples were sonicated and heated at 95 °C for 5 min. Proteins were separated by SDS-PAGE and electro-transferred onto nitrocellulose membranes. Blots were placed in Tris-buffered saline, supplemented with 0.05% Tween (Sigma, P2287) and 5% non-fat milk for 1 h at room temperature and then incubated with primary antibody (diluted in TBS/0.05% Tween) overnight at 4 °C. The following primary antibodies were used: Beclin1 (1:1000, Cell Signaling, #3495), Atg12 (1:1000, Cell Signaling #2010), LC3B-I/II (1:1000, Cell Signaling, #2775), FLAG (1:7000, Rockland, 600-401-383), FKBP51 (1:1000, Bethyl, A301-430A), Akt (1:1000, Cell Signaling, #4691), pAkt (1:1000, Ser473, T308, 1:1000, Cell Signaling, #4058, #9275), Actin (1:5000, Santa Cruz Biotechnologies, sc-1616), Skp2, myc (Addgene, 19947), GFP (santa cruz biotechnologies, sc-8334), p27 (cell signaling technologies, 3686), pULK,(S757, cell signaling technologies, 6888) APP-CTF (sigma-aldrich, A8717), DNMT1 (1:1000, Imgenex, IMG-261A), phospho-DNMT1 (S154), (1:1000, Abnova, PAB4924), ptau (S622; Santa Cruz Biotechnologies, #sc-16938).
Subsequently, blots were washed and probed with the respective horseradish peroxidase- or fluorophore-conjugated secondary antibody for 1 h at room temperature. The immuno-reactive bands were visualized either using ECL detection reagent (Millipore, Billerica, MA, USA, WBKL0500) or directly by excitation of the respective fluorophore. Determination of the band intensities were performed with BioRad, ChemiDoc MP, or X-ray-films.
The Fkbp51^-/- mouse line was previously generated (Touma C et al. (2011) Biol. Psychiatry 70: 928-936) and fully backcrossed to C57/BI6. […] Hippocampus and prefrontal cortex were extracted.

[5] = Forced swim test after acute antidepressant injection in Fkbp51+/+ and Fkbp51-/- mice; format: in vivo; details: FKBP51 WT versus FKBP51 KO mice; 10 mg kg-1 intraperitoneal
Experimental: The Fkbp51^-/- mouse line was previously generated (Touma C et al. (2011) Biol. Psychiatry 70: 928-936) and fully backcrossed to C57/BI6. […] Hippocampus and prefrontal cortex were extracted. […] Male mice (age 10-16 weeks) were injected intraperitoneally with a single dose of either AMI (10 mg kg^-1) or saline vehicle. […] Another subgroup (WT n=5, KO n=5) was sacrificed, and brain tissue and blood was sampled for analysis of drug concentrations. […] The inventors performed an additional forced swim test administering the antidepressant amitriptyline in FKBP51 WT and FKBP51 KO mice (Fig. 1 B).

Structure (SMILES)	induction of autophagy (p27, Beclin1, Atg12, pULK S757; Beclin1 ubiquitinylation, Vps34 association) (autophagy)	effect on Beclin1 protein level (Beclin1 [1])	levels of APP-CTF in the brain (APP-CTF)	synaptic neurotransmission (CA1 FDSs, VSDI) (CA1 neuronal activity)	levels of soluble Aβ in plasma and CSF (soluble Aβ)	Beclin1 stabilization confirmed in other cell types and mice brain lysates (Beclin1 [2])	antidepressant-like behavior in the tail suspension test (Tail suspension test)	cytotoxic effects (MTT assay) [3]	stabilization of Beclin1 (protein level, Western analysis) (Beclin1 [4])	Beclin1 mRNA expression level (Beclin1 mRNA)	effects on autophagy markers (autophagy markers)	behavioral effects, forced swim test [5]
CCCCc1ccc(NC(C)=O)c(C)c1 [SMIP004, N-(4-butyl-2-methylphenyl)acetamide]	induces autophagy, independently of the mTOR-ULK1 cascade	particularly strong	reduces the levels of APP-CTF in the brain	increased synaptic neurotransmission similarly to paroxetine	reduces the levels of soluble Aβ in plasma and CSF	confirmed in various cell types as well as in mice brain lysates	antidepressant-like behavior comparable to animals treated with paroxetine	very low cytotoxic effects	potent stabilizer of Beclin1	–	–	–
CN(C)CCC=C1c2ccccc2CCc2ccccc21 [amitriptyline]	–	–	–	–	–	–	–	–	–	do not change Beclin1-mRNA	only observed in FKBP51 WT mice but not in FKBP51 KO mice	only observed in FKBP51 WT mice but not in FKBP51 KO mice
CNCCC(Oc1ccc(C(F)(F)F)cc1)c1ccccc1 (stereo not shown) [fluoxetine]	–	–	–	–	–	–	–	–	–	do not change Beclin1-mRNA	–	–
